# Results as given in PMC9306349, “A Process for the Design and Development of Novel Bone Morphogenetic Protein-7 (BMP-7) Mimetics With an Example: THR-184” (Frontiers in Pharmacology, 2022).
# Read-outs that look alike come from different tables or passages of the source. Marks after values point to notes of the source that are not given here. Bridge positions count the residues as written; N and C are the ends. Peptide text beside a SMILES is read from it.
# What was measured:
# [1] = system: patients having major cardio-vascular surgery requiring the cardiopulmonary pump; assay: Phase II clinical trial NCT01830920, AKI after cardio-vascular surgery with cardiopulmonary pump; format: in vivo, human; conditions: clinical trial pharmacokinetic data; large variability of C Max and AUC
# Source text: The objective of the Phase II clinical trial, NCT01830920, ([Thrasos Innovation, Inc, 2013]), was to establish the dose, safety, and preliminary efficacy of THR-184 in a targeted patient population having major cardio-vascular surgery requiring the use of the cardiopulmonary pump The primary outcome of this clinical trial was the proportion of patients who develop AKI according to the KDIGO criteria ([Kidney Disease: Improving Global Outcomes (KDIGO) Acute Kidney Injury Work Group, 2012]). […] Use of urinary creatinine is not part of the KDIGO AKI criteria, but rather it is the urinary output that is part of the AKI definition. […] The clinical trial included serum samples for the analysis of KIM-1 and NGAL as exploratory endpoints, but there are as yet no published results from those samples.
# SAE: number of Serious Adverse Events.
# [2] = target: T1, CYP450 1A2 (Homo sapiens, UniProt P05177); format: in vitro ADME
# T1 sequence (P05177 1-516): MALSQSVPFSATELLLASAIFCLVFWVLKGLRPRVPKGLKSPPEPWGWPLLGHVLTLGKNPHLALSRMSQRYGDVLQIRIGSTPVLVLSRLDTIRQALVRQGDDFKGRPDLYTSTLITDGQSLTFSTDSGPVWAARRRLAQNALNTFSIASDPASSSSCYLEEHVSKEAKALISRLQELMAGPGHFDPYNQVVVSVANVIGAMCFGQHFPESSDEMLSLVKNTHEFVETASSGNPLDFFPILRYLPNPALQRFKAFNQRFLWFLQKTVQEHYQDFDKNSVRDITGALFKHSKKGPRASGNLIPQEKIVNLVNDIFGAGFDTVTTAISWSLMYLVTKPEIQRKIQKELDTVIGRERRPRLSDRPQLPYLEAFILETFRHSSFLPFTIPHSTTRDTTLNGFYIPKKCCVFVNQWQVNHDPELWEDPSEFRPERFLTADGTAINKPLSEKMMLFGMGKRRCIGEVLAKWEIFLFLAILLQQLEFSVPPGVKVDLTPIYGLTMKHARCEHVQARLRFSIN
# Source text: (§1) TABLE 2 THR-184 overview.
# [3] = system: adult healthy male and female volunteers; conditions: ref Himmelfarb et al., 2018, cited from earlier work
# Experimental: In the second study, THR-P-428 (MAD), THR-184 was administered as a slow intravenous infusion in a total of 24 adult healthy male and female volunteers, once daily over five consecutive days. THR-184 or the placebo was administered on the morning after a 10-h overnight fast. The solution was administered by slow injection via an indwelling catheter, at an infusion rate of 1 ml/min over 60 min. Three dose levels were studied: 0.3 mg/kg, 1 mg/kg, and 3 mg/kg. Adverse events were recorded continuously during the study.
# [4] = system: patients having major cardio-vascular surgery requiring the cardiopulmonary pump; conditions: ref Himmelfarb et al., 2018, cited from earlier work
# [5] = system: wound healing
# Source text: as §1
# [6] = system: hemodynamics
# Source text: as §1
# [7] = system: bleeding time
# Source text: as §1
# [8] = Off-target survey; conditions: 114 targets surveyed
# Source text: as §1
# [9] = target: CYP450 2D6 (Homo sapiens, UniProt P10635); assay: CYP450 isoform effect; format: in vitro ADME
# Source text: as §1
# [10] = target: CYP450 2C9 (Homo sapiens, UniProt P11712); assay: CYP450 isoform effect; format: in vitro ADME
# Source text: as §1
# [11] = target: CYP450 3A4 (Homo sapiens, UniProt P08684); assay: CYP450 isoform effect; format: in vitro ADME
# Source text: as §1
# [12] = target: CYP450 2C19 (Homo sapiens, UniProt P33261); assay: CYP450 isoform effect; format: in vitro ADME
# Source text: as §1
# [13] = cited from earlier work
# [14] = system: adult healthy male and female volunteers; conditions: ref Himmelfarb et al., 2018, cited from earlier work; remark: listed apart in the source
# Experimental: In the first study, THR-P-427 (SAD), the drug (THR-184) was administered as slow intravenous infusions in a total of 40 adult healthy male and female volunteers. The study drug or placebo was administered once on the morning after a 10-h overnight fast. The solution was administered by slow injection via an indwelling catheter, at an infusion rate of 1 ml/min over 60 min. Five dose levels were studied: 0.3 mg/kg, 1 mg/kg, 3 mg/kg, 6 mg/kg and 10 mg/kg. Adverse events were recorded continuously during the study.
# [15] = Stability of THR-184 in human plasma with and without ACE inhibitor; format: in vitro ADME; conditions: compound administered with an ACE inhibitor, read-out: serum half-life
# Source text: Protease degradation of drug candidates can shorten their in-plasma half-life to the point that therapeutic exposure is severely compromised resulting in loss of efficacy.
# [16] = system: cancer growth; assay: Preclinical overview: cancer growth
# Source text: as §1
# [17] = system: ectopic bone formation; assay: Rat implant assay of ectopic bone formation; format: in vivo; conditions: implanted in muscle pocket (Hydrogel or collagen carrier device), implants removed day 14, histology toluidine blue
# Experimental: FIGURE 2 Failure of BMP-7 mimetic (THR-123) to induce ectopic bone formation in rat implant assay: This assay is based on the ability of BMP-7 to induce ectopic bone formation in the rat and was carried out as described earlier (The Journal of Biological Chemistry, Vol. 267, pp. 20352-20362,1992) to determine in vivo efficacy of THR-123. Briefly, bovine bone matrix (collagen carrier)/BMP-7 or Hydrogel/BMP-7 or Hydrogel/THR-123, devices (all lyophilized) were implanted in muscle pocket. […] This work was supported by Thrasos Therapeutics.
# [18] = occurred equally in placebo and THR-184 treated subjects
# [19] = Arm 4 High Dose 0.46/0.02 mg/kg
# [20] = Arm 5 Highest Dose 0.46/0.46 mg/kg
# Chain of CYP450 2C9 (P11712 whole entry, canonical isoform): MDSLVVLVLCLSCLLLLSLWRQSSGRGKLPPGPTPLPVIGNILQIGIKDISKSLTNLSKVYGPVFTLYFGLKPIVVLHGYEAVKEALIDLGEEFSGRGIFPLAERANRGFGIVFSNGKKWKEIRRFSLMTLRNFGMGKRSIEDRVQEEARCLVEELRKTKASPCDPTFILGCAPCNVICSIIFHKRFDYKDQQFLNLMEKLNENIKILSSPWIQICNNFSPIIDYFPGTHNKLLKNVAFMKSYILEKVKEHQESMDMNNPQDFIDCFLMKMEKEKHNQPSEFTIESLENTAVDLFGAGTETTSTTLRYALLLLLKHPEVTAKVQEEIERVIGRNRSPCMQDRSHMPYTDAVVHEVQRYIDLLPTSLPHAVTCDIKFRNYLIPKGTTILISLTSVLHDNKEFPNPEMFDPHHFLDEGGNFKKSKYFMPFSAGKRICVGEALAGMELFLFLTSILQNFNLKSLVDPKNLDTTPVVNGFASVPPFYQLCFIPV
# Chain of CYP450 2C19 (P33261 whole entry, canonical isoform): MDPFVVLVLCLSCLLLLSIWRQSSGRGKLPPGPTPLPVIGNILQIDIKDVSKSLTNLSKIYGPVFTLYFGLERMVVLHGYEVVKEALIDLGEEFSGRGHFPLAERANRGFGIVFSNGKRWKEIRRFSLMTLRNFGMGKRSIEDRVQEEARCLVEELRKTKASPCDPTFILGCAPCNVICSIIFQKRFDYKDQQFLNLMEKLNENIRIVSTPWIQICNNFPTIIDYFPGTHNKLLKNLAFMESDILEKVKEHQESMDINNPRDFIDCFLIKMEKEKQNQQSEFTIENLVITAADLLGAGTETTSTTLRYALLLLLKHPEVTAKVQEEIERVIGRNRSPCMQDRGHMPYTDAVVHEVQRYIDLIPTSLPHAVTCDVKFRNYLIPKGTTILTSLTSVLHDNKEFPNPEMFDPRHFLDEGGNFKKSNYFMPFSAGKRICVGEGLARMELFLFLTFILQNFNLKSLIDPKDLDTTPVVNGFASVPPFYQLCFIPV
# Chain of CYP450 2D6 (P10635 whole entry, canonical isoform): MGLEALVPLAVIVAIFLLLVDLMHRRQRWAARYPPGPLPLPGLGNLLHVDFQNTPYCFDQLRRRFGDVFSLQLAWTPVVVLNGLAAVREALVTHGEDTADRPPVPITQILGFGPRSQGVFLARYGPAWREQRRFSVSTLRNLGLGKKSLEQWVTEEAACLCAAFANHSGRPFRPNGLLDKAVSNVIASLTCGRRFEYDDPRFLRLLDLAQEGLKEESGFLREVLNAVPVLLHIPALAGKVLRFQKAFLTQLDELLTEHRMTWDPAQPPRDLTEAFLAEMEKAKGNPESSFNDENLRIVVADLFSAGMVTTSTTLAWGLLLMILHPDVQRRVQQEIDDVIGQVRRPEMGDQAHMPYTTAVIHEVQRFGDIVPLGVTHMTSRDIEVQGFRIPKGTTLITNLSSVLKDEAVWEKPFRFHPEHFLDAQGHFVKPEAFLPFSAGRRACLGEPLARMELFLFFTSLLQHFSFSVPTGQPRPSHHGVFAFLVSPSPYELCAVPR
# Chain of CYP450 3A4 (P08684 whole entry, canonical isoform): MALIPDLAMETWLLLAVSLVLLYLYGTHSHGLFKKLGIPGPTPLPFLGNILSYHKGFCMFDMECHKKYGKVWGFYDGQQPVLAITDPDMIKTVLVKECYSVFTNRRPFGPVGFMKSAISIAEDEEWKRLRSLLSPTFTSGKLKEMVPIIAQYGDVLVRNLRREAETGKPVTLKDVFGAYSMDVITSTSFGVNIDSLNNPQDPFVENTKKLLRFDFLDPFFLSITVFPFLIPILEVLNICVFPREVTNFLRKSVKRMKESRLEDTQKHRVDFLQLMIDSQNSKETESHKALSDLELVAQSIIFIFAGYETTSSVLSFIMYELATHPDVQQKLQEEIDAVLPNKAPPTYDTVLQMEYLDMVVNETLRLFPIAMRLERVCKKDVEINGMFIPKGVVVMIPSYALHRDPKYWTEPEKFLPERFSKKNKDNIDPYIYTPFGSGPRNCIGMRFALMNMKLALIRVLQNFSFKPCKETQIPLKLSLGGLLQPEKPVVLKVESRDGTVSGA
molecule,measurement,setting,value
CC(C)C[C@@H]1NC(=O)[C@H](C(C)C)NC(=O)[C@H](CO)NC(=O)[C@H](CO)NC(=O)[C@H](CO)NC(=O)[C@H](CC(N)=O)NC(=O)[C@H](CC(=O)O)NC(=O)[C@H](Cc2ccc(O)cc2)NC(=O)[C@H](Cc2ccc(O)cc2)NC(=O)[C@@H](N)CSSC[C@@H](C(=O)N[C@@H](CCCCN)C(=O)N[C@@H](CCCNC(=N)N)C(=O)N[C@@H](Cc2ccc(O)cc2)C(=O)N[C@@H](CCCNC(=N)N)C(=O)N[C@@H](CO)C(=O)O)NC1=O [THR-184] (H-CYYDNSSSVLCKRYRS-OH; disulfide 1-11),relationship of dose to serum levels,[1],clear relationship of the dose to serum levels of the compound
same,effect on CYP450 1A2,[2],"Has no effect on key CYP450 isoforms (1A2, 2C19, 2C9, 2D6, 3A4)"
same,serious adverse events,"[3]; 60 min iv infusion once daily for five days, 0.3-3 mg/kg, healthy volunteers",no serious adverse events observed
same,most frequently observed adverse event,[3]; [18],somnolence
same,Deaths,[4]; Arm 2 Low Dose 0.02/0.02 mg/kg,4 #
same,SAE > 1 (Serious Adverse Events),[4]; Arm 2 Low Dose 0.02/0.02 mg/kg,46.7%
same,Deaths,[4]; Arm 3 Mid Dose 0.12/0.02 mg/kg,5 #
same,SAE > 1 (Serious Adverse Events),[4]; Arm 3 Mid Dose 0.12/0.02 mg/kg,59.6%
same,Deaths,[4]; [19],4 #
same,SAE > 1 (Serious Adverse Events),[4]; [19],42.0%
same,Deaths,[4]; [20],5 #
same,SAE > 1 (Serious Adverse Events),[4]; [20],41.0%
same,wound healing,[5],Does not inhibit wound healing
same,hemodynamics,[6],Does not affect hemodynamics
same,bleeding time,[7],Does not affect bleeding time
same,off-target interactions,[8],Has no off-target interactions (114 targets surveyed)
same,effect on CYP450 2D6,[9],"Has no effect on key CYP450 isoforms (1A2, 2C19, 2C9, 2D6, 3A4)"
same,effect on CYP450 2C9,[10],"Has no effect on key CYP450 isoforms (1A2, 2C19, 2C9, 2D6, 3A4)"
same,effect on CYP450 3A4,[11],"Has no effect on key CYP450 isoforms (1A2, 2C19, 2C9, 2D6, 3A4)"
same,effect on CYP450 2C19,[12],"Has no effect on key CYP450 isoforms (1A2, 2C19, 2C9, 2D6, 3A4)"
same,Human Plasma Stability: t1/2,[13],6 min
same,most frequently observed adverse event,[14]; [18],headache
same,serious adverse events,"[14]; single 60 min iv infusion, 0.3-10 mg/kg, healthy volunteers",no serious adverse events observed
same,half-life,[15],1 h
same,cancer growth,[16],Does not promote cancer growth
"BMP-7: Bone Morphogenetic Protein-7, positive control in rat implant assay (protein, UniProt P18075 293-431, looked up) Bone morphogenetic protein 7: STGSKQRSQNRSKTPKNQEALRMANVAENSSSDQRQACKKHELYVSFRDLGWQDWIIAPEGYAAYYCEGECAFPLNSYMNATNHAIVQTLVHFINPETVPKPCCAPTQLNAISVLYFDDSSNVILKKYRNMVVRACGCH",ectopic bone formation,[17],induced bone formation
